Source: US20090286869A1, “Flavanols and B-Type Procyanidins and Inflammation” (Mars, Inc., priority 2005, published 2009)
Entries after “also recorded” stand apart in the source; their conditions may differ.

Tests used:
COX-2 mRNA [1] = experiment: RT-PCR of COX-2 mRNA in LPS and fMLP-treated U937-derived macrophages; type: cell-based, human; conditions: 10 μM each; for inhibition of the mRNA expression of COX-2: 2 h pretreatment before LPS 1 μg/ml priming or fMLP 10 μM stimulation, FIGS. 4 A-C; for order of suppression potency of the COX-2 mRNA expression induced by LPS and fMLP: FIG. 4C
Method: The human monocyte line U937 was obtained from the cell bank in Shanghai Institute of Biological Sciences, Chinese Academy of Sciences. Monocytic cells of 3-4 passages were grown to confluence in RPMI 1640 (GIBCO-BRL, Glasgow, Scotland) containing 10% fetal bovine serum at 37° C. in a 5% CO2 humidified incubator during all experimental procedures. Macrophages were pretreated with procyanidins B1 dimer, B2 dimer, A1 dimer, and flavanols (−)-catechin and (+)-epicatechin (each 10) for 2 h before LPS (1 μg·ml^−1) priming or fMLP (10 μM) stimulation for 2 h. The normal macrophages without LPS or fMLP treatment were considered as controls. They were then differentiated to macrophages in the medium containing 100 nM PMA and allowed to adhere for 48 h, after which they were fed with PMA-free medium and cultured for 24 h prior to use. Cells from different groups were collected and total RNA was prepared with TRI-REAGENT-LS extraction kit The expression of RNAs was determined by RT-PCR. Complementary DNA was created from RNA using TrueScript MMLV reverse transcriptase and oligo d (T) 18 primers. 5 μg RNA was included in each reaction.
The data are presented as means±SD and compared with ANOVA and least significant difference test using SPSS statistical program. The level of the statistical significance was set at P<0.05.

COX-2 mRNA [2] = experiment: Real-time quantitative RT-PCR of COX-2 mRNA in LPS-treated differentiated THP-1 cells; type: cell-based, human; conditions: differentiated THP-1 cells exposed to dimer B2 and LPS 1 μg/ml for 4 h; FIG. 1
Method: (§1) Human monocytic THP-1 cells from acute monocytic leukemia (American Type Culture Collection, Manassas, Va.) in RPMI 1640 medium (Life Technologies, Rockville, Md.), with 4.5 g/L glucose, 10 nM HEPES, 1 mM sodium pyruvate, and 50 μM 2-ME supplemented with 10% FBS, were cultured under a humidified 5% CO2 atmosphere at 37° C. For differentiation, THP-1 cells were plated at 1×10^6 cells/ml in the medium containing 100 nM PMA and allowed to adhere for 48 h, after which they were fed with PMA-free medium and cultured for 24 h prior to use. LPS was used at concentration of 1 μg/ml in the medium. sf9 cells were cultured in monolayer at 28° C. in Grace's supplemented medium with 10% heat-inactivated fetal bovine serum.
Total RNA was extracted from macropahges with TRIzol reagent (Invitrogen Corporation, Carlsbad, Calif.). Real-time quantitative RT-PCR was performed using the Opticon 2 (MJ Research Inc., Waltham, Mass.). Sequence specific PCR primers for COX-2 [accession no. NM_000963; forward primer: 5′-[…]-3′ [SEQ ID NO: 1]; reverse primer: 5′-[…]-3′ [SEQ ID NO: 2]] and GAPDH [accession no. NM_002046; forward primer: 5′-[…]-3′ [SEQ ID NO: 3]; reverse primer: 5′-[…]-3′ [SEQ ID NO: 4]] were designed using the Primer Premier software version 5.00. Standard curves were run on the same plate and the relative standard curve method was used to calculate the relative gene expression. […]

COX-2 protein expression = experiment: Western blot of LPS-induced COX-2 protein expression in THP-1 cells; type: cell-based, human; conditions: 50 μM, 30 min pretreatment with B2 followed by 4 hour LPS treatment
Method: as §1
5×10^6 cells were resuspended in modified RIPA lysis buffer (Tris-HCl 50 mM, pH 7.4 NaCl 150 mM, EDTA 1 mM, Na-deoxycholate 0.25%, NP-40 1%, PMSF 1 mM, Na3VO4 1 mM, NaF 1 mM, Aprotinin 10 μg/ml, leupeptin 5 μg/ml, pepstatin 5 μg/ml), and lysed cells on ice for 45 min. The lysate was centrifuged at 14,000×g for 15 min to sediment the particulate materials. The protein concentration of the supernatant was measured by the method of Lowry (Lowry et al., J. Biol. Chem. 193:265-267, 1951). Samples were electrophoresed in SDS/PAGE gels and separated proteins were transferred onto a PVDF membrane. […]

[3] = molecular target: T1, recombinant human COX-2 enzyme (Homo sapiens, UniProt P35354); experiment: Determination of COX-2 enzyme activity (PGE2 RIA, baculovirus-expressed enzyme in sf9 cells); type: biochemical; conditions: baculovirus-expressed human recombinant COX-2; 10 μmol/L arachidonic acid; FIG. 3
T1 construct: made in house; host or cells: sf9 insect cells infected with hCOX-2 recombinant baculovirus
T1 sequence (P35354 18-604): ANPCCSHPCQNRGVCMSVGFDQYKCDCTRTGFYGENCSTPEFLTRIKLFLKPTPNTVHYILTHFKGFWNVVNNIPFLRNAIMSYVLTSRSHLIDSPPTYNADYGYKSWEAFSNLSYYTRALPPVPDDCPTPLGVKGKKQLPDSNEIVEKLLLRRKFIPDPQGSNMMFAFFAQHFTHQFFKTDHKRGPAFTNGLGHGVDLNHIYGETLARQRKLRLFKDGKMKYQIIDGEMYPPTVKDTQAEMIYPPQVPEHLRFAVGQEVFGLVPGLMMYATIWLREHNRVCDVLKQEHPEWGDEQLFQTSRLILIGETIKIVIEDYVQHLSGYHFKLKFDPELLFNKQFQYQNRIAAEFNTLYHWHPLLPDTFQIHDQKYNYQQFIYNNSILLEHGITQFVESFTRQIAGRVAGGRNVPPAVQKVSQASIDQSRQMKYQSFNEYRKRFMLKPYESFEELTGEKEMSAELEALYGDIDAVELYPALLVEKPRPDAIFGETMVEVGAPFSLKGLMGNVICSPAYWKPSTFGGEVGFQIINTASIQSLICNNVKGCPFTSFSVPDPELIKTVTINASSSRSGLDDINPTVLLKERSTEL
Method: The effect of procyanidin dimer B2 and NS398, a selective COX-2 inhibitor (positive control), on the activity of COX-2 was measured using baculovirus-expressed recombinant human COX-2 enzyme as previously described (Zhang et al., Acta. Pharmacol. Sin. 25(8):1000-1006, 2004). Briefly, 24 h after infecting sf9 cells with hCOX-2 recombinant baculovirus, the cells were collected and washed in HHBS. The assays were performed as follows. One milliliter of Hank's solution containing 1×10^5 COX-2 expressing cells plus 9×10^5 uninfected sf9 cells was dispensed per well of 24-well polypropylene plates. B2, NS398, or DMSO vehicle (10 μL) was added to the appropriate well containing the cell suspension. Following a 15-min drug or DMSO preincubation at 37° C., the cells were challenged with 10 μmol/L arachidonic acid
(Sigma) in ethanol and incubated for 10 min. Reactions were terminated by the addition of 100 μL of 1 mol/L HCl, neutralized with 100 μL of 1 mol/L NaOH. The cells were pelleted for 10 min at 300×g and the levels of PGE2 in the supernatant were determined by a PGE2-specific RIA (Beijing East Asia Institute of Immunology). The concentration of PGE2 was then determined by interpolation from a standard curve and inhibition calculated by comparison of the PGE2 production by drug-treated cells (B2 and NS398) with that of DMSO-treated cells.

Compound	inhibition of the mRNA expression of COX-2 (COX-2 mRNA [1])	order of suppression potency of the COX-2 mRNA expression induced by LPS and fMLP (COX-2 mRNA [1])	levels of mRNA for COX-2 (COX-2 transcription) (COX-2 mRNA [2])	LPS-induced COX-2 protein expression (COX-2 protein expression; FIG. 2)	LPS-induced COX-2 protein expression (COX-2 protein expression; FIG. 2, listed as 132)	effect on PGE2 synthesis (COX-2 enzyme activity) [3]
Oc1cc(O)c2c(c1)O[C@@H](c1ccc(O)c(O)c1)[C@@H](O)C2 [(+)-epicatechin]	significant inhibition	(−)-catechin, (+)-epicatechin >B1, B2>A1				
Oc1cc(O)c2c(c1)OC1(c3ccc(O)c(O)c3)Oc3cc(O)c4c(c3C2C1O)OC(c1ccc(O)c(O)c1)C(O)C4 (centres unmarked) [A1, reference compound]	significant inhibition	(−)-catechin, (+)-epicatechin >B1, B2>A1				
Oc1cc(O)c2c(c1)O[C@H](c1ccc(O)c(O)c1)[C@H](O)[C@H]2c1c(O)cc(O)c2c1O[C@H](c1ccc(O)c(O)c1)[C@@H](O)C2 [B1, (−)-epicatechin-(4β-8)-(+)-catechin]	significant inhibition	(−)-catechin, (+)-epicatechin >B1, B2>A1				
Oc1cc(O)c2c(c1)O[C@H](c1ccc(O)c(O)c1)[C@H](O)[C@H]2c1c(O)cc(O)c2c1O[C@H](c1ccc(O)c(O)c1)[C@H](O)C2 [B2, (−)-epicatechin-(4β-8)-(−)-epicatechin]	significant inhibition	(−)-catechin, (+)-epicatechin >B1, B2>A1	inhibitory effect; also recorded: reduced in a concentration-dependent manner	inhibited	inhibitory effect	not inhibited; also recorded: no inhibitory effect
(−)-catechin	significant inhibition	(−)-catechin, (+)-epicatechin >B1, B2>A1				
